Assays:
MV-4-11 cells = assay: CCK-8 cell viability assay in MV-4-11 cells; type: cell-based; settings: Homo sapiens, MV4-11, 72 h, 10% FBS, 3 days
In short: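 MV-4-11 cells (20000/well) were exposed to serially diluted compound for 3 days at 37 °C. Viability was then measured with CCK-8 (1–4 h, absorbance 450 nm). IC50 was derived from readings normalized to vehicle.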

Bcl-2 WT = Bcl-2 WT (Homo sapiens, UniProt P10415); assay: Bcl-2 WT inhibition, fluorescence polarization (Flu-BIM tracer) binding assay; settings: FP; 20 nM Bcl2, 5 nM Flu-BIM, 1 h incubation; read-out: Bcl-2 w.t. (FP)
Chain of Bcl-2 WT (P10415 whole entry): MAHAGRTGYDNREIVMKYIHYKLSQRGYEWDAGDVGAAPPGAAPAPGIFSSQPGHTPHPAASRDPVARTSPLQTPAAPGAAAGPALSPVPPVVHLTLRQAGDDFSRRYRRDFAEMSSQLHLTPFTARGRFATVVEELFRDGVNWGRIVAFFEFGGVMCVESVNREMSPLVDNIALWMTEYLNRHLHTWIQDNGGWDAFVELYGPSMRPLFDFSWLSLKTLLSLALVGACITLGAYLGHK

RS4; 11Bcl-2-G101V cells = assay: CellTiter-Glo (CTG) cell viability assay in RS4;11-Bcl-2-G101V cells; type: cell-based; settings: 72 h, 10% FBS, 3 days
In short: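 Engineered RS4;11 lines carrying Bcl-2 mutants, 10000 cells/well in RPMI-1640 with 10% FBS, exposed to serially diluted compound for 3 days at 37 °C, 5% CO2. Viability read by CellTiter-Glo luminescence, normalized to vehicle; IC50 calculated.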

SMILES	IC50 (MV-4-11 cells) [nM]	IC50 (Bcl-2 WT) [nM]	IC50 (RS4; 11Bcl-2-G101V cells) [nM]
CC1(C)CCC(CN2CCN(c3ccc(C(=O)NS(=O)(=O)c4ccc(NC[C@H]5CC[C@](C)(O)CC5)c([N+](=O)[O-])c4)c(Oc4cnc5[nH]ccc5c4)c3)CC2)=C(c2cc(-c3ccc(F)c(F)c3F)cs2)C1 [Example 46, 2-((1H-pyrrolo[2,3-b]pyridin-5-yl)oxy)-4-(4-((4,4-dimethyl-2-(4-(2,3,4-trifluorophenyl)thiophen-2-yl)cyclohex-1-en-1-yl)methyl)piperazin-1-yl)-N-((4-((((1r,4r)-4-hydroxy-4-methylcyclohexyl)methyl)amino)-3-nitrophenyl)sulfonyl)benzamide]	9	22.5	230
CC1(C)CCC(CN2CCN(c3ccc(C(=O)NS(=O)(=O)c4ccc(NC[C@H]5COCCO5)c([N+](=O)[O-])c4)c(Oc4cnc5[nH]ccc5c4)c3)CC2)=C(c2cc(-c3ccc(C(F)F)cc3)cs2)C1 [Example 48, (S)—N-((4-(((1,4-dioxan-2-yl)methyl)amino)-3-nitrophenyl)sulfonyl)-2-((1H-pyrrolo[2,3-b]pyridin-5-yl)oxy)-4-(4-((2-(4-(4-(difluoromethyl)phenyl)thiophen-2-yl)-4,4-dimethylcyclohex-1-en-1-yl)methyl)piperazin-1-yl)benzamide]	9	20.2	810
CC1(C)CCC(CN2CCN(c3ccc(C(=O)NS(=O)(=O)c4ccc(NC[C@H]5CC[C@](C)(O)CC5)c([N+](=O)[O-])c4)c(Oc4cnc5[nH]ccc5c4)c3)CC2)=C(c2cc(-c3ccc(C(F)F)cc3)cs2)C1 [Example 49, 2-((1H-pyrrolo[2,3-b]pyridin-5-yl)oxy)-4-(4-((2-(4-(4-(difluoromethyl)phenyl)thiophen-2-yl)-4,4-dimethylcyclohex-1-en-1-yl)methyl)piperazin-1-yl)-N-((4-((((1r,4r)-4-hydroxy-4-methylcyclohexyl)methyl)amino)-3-nitrophenyl)sulfonyl)benzamide]	9	38.4	420
CC1(C)CCC(CN2CCN(c3ccc(C(=O)NS(=O)(=O)c4ccc(NC[C@H]5COCCO5)c([N+](=O)[O-])c4)c(Oc4cnc5[nH]ccc5c4)c3)CC2)=C(c2cc(-c3ccc(F)c(F)c3)cs2)C1 [Example 50, (S)—N-((4-(((1,4-dioxan-2-yl)methyl)amino)-3-nitrophenyl)sulfonyl)-2-((1H-pyrrolo[2,3-b]pyridin-5-yl)oxy)-4-(4-((2-(4-(3,4-difluorophenyl)thiophen-2-yl)-4,4-dimethylcyclohex-1-en-1-yl)methyl)piperazin-1-yl)benzamide]	65	30.4	1950
CC1(C)CCC(CN2CCN(c3ccc(C(=O)NS(=O)(=O)c4ccc(NC[C@H]5CC[C@](C)(O)CC5)c([N+](=O)[O-])c4)c(Oc4cnc5[nH]ccc5c4)c3)CC2)=C(c2cc(-c3ccc(F)c(F)c3)cs2)C1 [Example 51, 2-((1H-pyrrolo[2,3-b]pyridin-5-yl)oxy)-4-(4-((2-(4-(3,4-difluorophenyl)thiophen-2-yl)-4,4-dimethylcyclohex-1-en-1-yl)methyl)piperazin-1-yl)-N-((4-((((1r,4r)-4-hydroxy-4-methylcyclohexyl)methyl)amino)-3-nitrophenyl)sulfonyl)benzamide]	52	35.5	1140
CC1(C)CCC(CN2CCN(c3ccc(C(=O)NS(=O)(=O)c4ccc(NC[C@H]5CC[C@](C)(O)CC5)c([N+](=O)[O-])c4)c(Oc4cnc5[nH]ccc5c4)c3)CC2)=C(c2cc(-c3cc(F)c(F)cc3F)cs2)C1 [Example 53, 2-((1H-pyrrolo[2,3-b]pyridin-5-yl)oxy)-4-(4-((4,4-dimethyl-2-(4-(2,4,5-trifluorophenyl)thiophen-2-yl)cyclohex-1-en-1-yl)methyl)piperazin-1-yl)-N-((4-((((1r,4r)-4-hydroxy-4-methylcyclohexyl)methyl)amino)-3-nitrophenyl)sulfonyl)benzamide]	9	27.8	430
CC1(C)CCC(CN2CCN(c3ccc(C(=O)NS(=O)(=O)c4ccc(NC[C@H]5CC[C@](C)(O)CC5)c([N+](=O)[O-])c4)c(Oc4cnc5[nH]ccc5c4)c3)CC2)=C(c2cc(-c3c(F)ccc(F)c3F)cs2)C1 [Example 54, 2-((1H-pyrrolo[2,3-b]pyridin-5-yl)oxy)-4-(4-((4,4-dimethyl-2-(4-(2,3,6-trifluorophenyl)thiophen-2-yl)cyclohex-1-en-1-yl)methyl)piperazin-1-yl)-N-((4-((((1r,4r)-4-hydroxy-4-methylcyclohexyl)methyl)amino)-3-nitrophenyl)sulfonyl)benzamide]	7	22.8	270
CC1(C)CCC(CN2CCN(c3ccc(C(=O)NS(=O)(=O)c4ccc(NC[C@H]5CC[C@](C)(O)CC5)c([N+](=O)[O-])c4)c(Oc4cnc5[nH]ccc5c4)c3)CC2)=C(c2cc(-c3cc(F)cc(C#N)c3)cs2)C1 [Example 55, 2-((1H-pyrrolo[2,3-b]pyridin-5-yl)oxy)-4-(4-((2-(4-(3-cyano-5-fluorophenyl)thiophen-2-yl)-4,4-dimethylcyclohex-1-en-1-yl)methyl)piperazin-1-yl)-N-((4-((((1r,4r)-4-hydroxy-4-methylcyclohexyl)methyl)amino)-3-nitrophenyl)sulfonyl)benzamide]	72	31.2	1140
CC1(C)CCC(CN2CCN(c3ccc(C(=O)NS(=O)(=O)c4ccc(NC[C@H]5CC[C@](C)(O)CC5)c([N+](=O)[O-])c4)c(Oc4cnc5[nH]ccc5c4)c3)CC2)=C(c2cc(-c3ccc(C(C)(C)C#N)cc3)cs2)C1 [Example 56, 2-((1H-pyrrolo[2,3-b]pyridin-5-yl)oxy)-4-(4-((2-(4-(4-(2-cyanopropan-2-yl)phenyl)thiophen-2-yl)-4,4-dimethylcyclohex-1-en-1-yl)methyl)piperazin-1-yl)-N-((4-((((1r,4r)-4-hydroxy-4-methylcyclohexyl)methyl)amino)-3-nitrophenyl)sulfonyl)benzamide]	68	16.1	1910
CN(C)c1ccccc1-c1csc(C2=C(CN3CCN(c4ccc(C(=O)NS(=O)(=O)c5ccc(NC[C@H]6COCCO6)c([N+](=O)[O-])c5)c(Oc5cnc6[nH]ccc6c5)c4)CC3)CCC(C)(C)C2)c1 [Example 58, (S)—N-((4-(((1,4-dioxan-2-yl)methyl)amino)-3-nitrophenyl)sulfonyl)-2-((1H-pyrrolo[2,3-b]pyridin-5-yl)oxy)-4-(4-((2-(4-(2-(dimethylamino)phenyl)thiophen-2-yl)-4,4-dimethylcyclohex-1-en-1-yl)methyl)piperazin-1-yl)benzamide]	178	20.1	3050
CC1(C)CCC(CN2CCN(c3ccc(C(=O)NS(=O)(=O)c4ccc(NC[C@H]5CC[C@](C)(O)CC5)c([N+](=O)[O-])c4)c(Oc4cnc5[nH]ccc5c4)c3)CC2)=C(c2cc(-c3ccc(C(C)(C)O)cc3)cs2)C1 [Example 59, 2-((1H-pyrrolo[2,3-b]pyridin-5-yl)oxy)-N-((4-((((1r,4r)-4-hydroxy-4-methylcyclohexyl)methyl)amino)-3-nitrophenyl)sulfonyl)-4-(4-((2-(4-(4-(2-hydroxypropan-2-yl)phenyl)thiophen-2-yl)-4,4-dimethylcyclohex-1-en-1-yl)methyl)piperazin-1-yl)benzamide]	2	29.3	290
CC1(C)CCC(CN2CCN(c3ccc(C(=O)NS(=O)(=O)c4ccc(NC[C@H]5CC[C@](C)(O)CC5)c([N+](=O)[O-])c4)c(Oc4cnc5[nH]ccc5c4)c3)CC2)=C(c2cc(-c3ccc(C(O)(C(F)(F)F)C(F)(F)F)cc3)cs2)C1 [Example 60, 2-((1H-pyrrolo[2,3-b]pyridin-5-yl)oxy)-4-(4-((2-(4-(4-(1,1,1,3,3,3-hexafluoro-2-hydroxypropan-2-yl)phenyl)thiophen-2-yl)-4,4-dimethylcyclohex-1-en-1-yl)methyl)piperazin-1-yl)-N-((4-((((1r,4r)-4-hydroxy-4-methylcyclohexyl)methyl)amino)-3-nitrophenyl)sulfonyl)benzamide]	303	20.4	3410
CC1(C)CCC(CN2CCN(c3ccc(C(=O)NS(=O)(=O)c4ccc(NC[C@H]5CC[C@](C)(O)CC5)c([N+](=O)[O-])c4)c(Oc4cnc5[nH]ccc5c4)c3)CC2)=C(c2cc(-c3ccc(C(C)(C)O)cc3F)cs2)C1 [Example 62, 2-((1H-pyrrolo[2,3-b]pyridin-5-yl)oxy)-4-(4-((2-(4-(2-fluoro-4-(2-hydroxypropan-2-yl)phenyl)thiophen-2-yl)-4,4-dimethylcyclohex-1-en-1-yl)methyl)piperazin-1-yl)-N-((4-((((1r,4r)-4-hydroxy-4-methylcyclohexyl)methyl)amino)-3-nitrophenyl)sulfonyl)benzamide]	4	15.7	140
CC1(C)CCC(CN2CCN(c3ccc(C(=O)NS(=O)(=O)c4ccc(NC[C@H]5COCCO5)c([N+](=O)[O-])c4)c(Oc4cnc5[nH]ccc5c4)c3)CC2)=C(c2cc(-c3c(F)cc(C(C)(C)O)cc3F)cs2)C1 [Example 64, (S)—N-((4-(((1,4-dioxan-2-yl)methyl)amino)-3-nitrophenyl)sulfonyl)-2-((1H-pyrrolo[2,3-b]pyridin-5-yl)oxy)-4-(4-((2-(4-(2,6-difluoro-4-(2-hydroxypropan-2-yl)phenyl)thiophen-2-yl)-4,4-dimethylcyclohex-1-en-1-yl)methyl)piperazin-1-yl)benzamide]	7	16.4	30

From patent US12577245B2, “Sulfonyl benzamide derivatives as Bcl-2 inhibitors” (ASCENTAGE PHARMA (SUZHOU) CO., LTD., priority 2021, dated 2026)
